What was measured:
adenosine A1 receptor = molecular target: T1, adenosine A1 receptor (Rattus norvegicus, UniProt P25099); test: Adenosine Receptor Binding - A1 Receptor Affinity (RBA1); details: [3H]-CHA, rat whole brain membranes; read-out: RBA-1
T1 construct: Whole brain minus cerebellum and brainstem from male Long Evans rats (150-200 g) was homogenized; from tissue; host or cells: rat whole brain minus cerebellum and brainstem, membrane homogenate
T1 sequence (P25099 1-326): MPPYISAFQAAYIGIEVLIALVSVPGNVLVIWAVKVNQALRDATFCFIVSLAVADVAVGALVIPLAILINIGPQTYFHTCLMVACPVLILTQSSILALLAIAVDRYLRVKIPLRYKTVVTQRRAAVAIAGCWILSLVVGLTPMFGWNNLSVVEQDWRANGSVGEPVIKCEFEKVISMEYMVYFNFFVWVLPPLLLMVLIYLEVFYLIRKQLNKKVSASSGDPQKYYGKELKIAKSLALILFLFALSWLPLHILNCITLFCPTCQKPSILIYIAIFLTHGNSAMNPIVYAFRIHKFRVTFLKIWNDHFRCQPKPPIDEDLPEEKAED
Experimental: Adenosine Receptor Binding - A1 Receptor Affinity (RBA1)
Whole brain minus cerebellum and brainstem from male Long Evans rats (150-200 g) was homogenized in 30 volumes of ice-cold 0.05 M Tris-HCI buffer pH 7.7 using a Brinkman Polytron PT-10 (setting number 6 for 20 seconds) and centrifuged for ten minutes at 20,000 x g (Sorvall RC-2), 4°C. The supernatant was discarded, and the pellet was resuspended and centrifuged as before. The pellet was resuspended in 20 ml Tris-HCI buffer containing two International Units/ml of adenosine deaminase (Sigma type III from calf intestinal mucosa), incubated at 37°C for 30 minutes, then subsequently at 0°C for ten minutes. The homogenate was again centrifuged, and the final pellet was resuspended in ice-cold 0.05 M Tris-HCI buffer pH 7.7 to a concentration of 20 mg/ml original wet tissue weight and used immediately.
Tissue homogenate (10 mg/ml) was incubated in 0.05 M Tris-HCI buffer pH 7.7 containing 1.0 nM [^3H]-N^6-cyclohexyladenosine (^3H]-CHA) with or without test agents in triplicate for one hour at 25°C. Incubation volume was 2 ml. Unbound [^3H]-CHA was separated by rapid filtration under reduced pressure through Whatman glass fiber (GF/B) filters. The filters were rinsed three times with 5 ml of ice cold 0.05 M Tris-HCI buffer pH 7.7. The radio-labeled ligand retained on the filter was measured by liquid scintillation spectrophotometry after shaking the filters for one hour or longer on a mechanical shaker in 10 ml of Beckman Ready Solv HP scintillation cocktail.
Nonspecific binding was defined as the binding which occurred in the presence of 1 mM thophylline. […] The Scatchard plot was calculated by linear regression of the line obtained by plotting the amount of radioligand bound (pmoles/gram of tissue) versus [formula] Since the amount of radioligand bound was a small fraction of the total amount added, free radioligand was defined as the concentration (nM) of radioligand added to the incubation mixture. The Hill coefficient was calculated by linear regression of the line obtained by plotting the log of the bound radioligand vs the log of the [formula] The maximal number of binding sites (Bmax) was calculated from the Scatchard plot.

Swiss-Webster male mice [1] = test: Mouse Activity and Screen Test Procedure (MAST): locomotor activity in actophotometer; assay type: in vivo; details: one hour prior to testing
Experimental: Nine unfasted Swiss-Webster male mice weighing 20-30 g equally divided into three groups for each drug dose to be tested. That is, data for each dose level was generated by three separated groups of three mice each. A minimum of three dose levels (10, 30, and 100 mg/kg) are tested for each drug. Treatments are administered intraperitoneally one hour prior to testing. All dosages are calculated as parent compound and given in volumes of 10 ml/kg. […] Control animals are injected with Methocel. […] The actophotometer consists of a cylindrical chamber whose center is occupied by another cylinder which contains the illumination for six photocells located on the perimeter of the chamber. Six light-beam interruptions equal one count. […] Data: The data obtained from the screen test are expressed as percent of mice falling off the screen. Data derived from locomotor activity of drug treated mice are compared to the activity of vehicle treated animals and are expressed as percent inhibition of spontaneous locomotion. All percentages reported for inhibition of locomotion (LI) are based upon data accumulated for one hour. […] An overall dose rating is obtained by the following criteria: LAD refers to the lowest dose at which an A rating is achieved. […] The compounds are identified in the Examples.

Swiss-Webster male mice [2] = test: Mouse Activity and Screen Test Procedure (MAST): screen test (ST); assay type: in vivo; details: one hour postinjection
Source text: The compounds of the invention are new chemical substances which are useful as pharmaceutical agents for the treatment of psychoses. The antipsychotic activity of representative compounds of the invention was established by the Mouse Activity and Screen Test Procedrue (MAST) described below.
Nine unfasted Swiss-Webster male mice weighing 20-30 g equally divided into three groups for each drug dose to be tested. That is, data for each dose level was generated by three separated groups of three mice each.
A minimum of three dose levels (10, 30, and 100 mg/kg) are tested for each drug. Treatments are administered intraperitoneally one hour prior to testing. All dosages are calculated as parent compound and given in volumes of 10 ml/kg. Compounds are dissolved or suspended in 0.2% Methocel. Control animals are injected with Methocel.
Testing: A two part testing procedure is started one hour postinjection. First, the screen test (ST) is performed (see Pharmac. Biochem. Behav. 6, 351-353, 1977). Briefly this test consists of placing mice on individual wire screens which are then rotated 180 degrees at the start of a 60 second observation period. The number of mice falling off the inverted screen is recorded.
Data: The data obtained from the screen test are expressed as percent of mice falling off the screen. Data derived from locomotor activity of drug treated mice are compared to the activity of vehicle treated animals and are expressed as percent inhibition of spontaneous locomotion. All percentages reported for inhibition of locomotion (LI) are based upon data accumulated for one hour. Both phases of testing are graded: A=60-100%; G=31-59%; and N=0-30%. An overall dose rating is obtained by the following criteria:
LAD refers to the lowest dose at which an A rating is achieved. […] Utilizing this procedure, an overall dose rating of A was obtained for the noted compound at the indicated dose. The compounds are identified in the Examples.

Row | Structure (SMILES) | IC50 (adenosine A1 receptor) [nM] | Screen test failure (Swiss-Webster male mice [2]; 3 mg/kg intraperitoneally) [%] | Screen test failure (Swiss-Webster male mice [2]; 10 mg/kg intraperitoneally) [%] | Screen test failure (Swiss-Webster male mice [2]; 30 mg/kg intraperitoneally) [%] | Screen test failure (Swiss-Webster male mice [2]; 1 mg/kg intraperitoneally) [%] | Screen test failure (Swiss-Webster male mice [2]; 0.3 mg/kg intraperitoneally) [%] | Screen test failure (Swiss-Webster male mice [2]; 100 mg/kg intraperitoneally) [%] | Screen test failure (Swiss-Webster male mice [2]; 0.1 mg/kg intraperitoneally) [%] | Inhibition of mouse locomotor activity (Swiss-Webster male mice [1]; 3 mg/kg intraperitoneally) [%] | Inhibition of mouse locomotor activity (Swiss-Webster male mice [1]; 10 mg/kg intraperitoneally) [%] | Inhibition of mouse locomotor activity (Swiss-Webster male mice [1]; 30 mg/kg intraperitoneally) [%] | Inhibition of mouse locomotor activity (Swiss-Webster male mice [1]; 1 mg/kg intraperitoneally) [%] | Inhibition of mouse locomotor activity (Swiss-Webster male mice [1]; 0.3 mg/kg intraperitoneally) [%] | Inhibition of mouse locomotor activity (Swiss-Webster male mice [1]; 100 mg/kg intraperitoneally) [%] | Inhibition of mouse locomotor activity (Swiss-Webster male mice [1]; 0.1 mg/kg intraperitoneally) [%]
1 | OC[C@H]1O[C@@H](n2cnc3c(NCC4CCCCc5ccccc54)ncnc32)[C@H](O)[C@@H]1O (stereo partly drawn) [Example 28, N^6-(1-benzocycloheptyl)methyladenosine] | 208 | 0 | 11 | 0 |  |  |  |  | 35 | 19 | 59 |  |  |  | 
2 | OC[C@H]1O[C@@H](n2cnc3c(NCC4(O)CCc5ccccc54)ncnc32)[C@H](O)[C@@H]1O (stereo partly drawn) [Example 25, N^6-[2,3-dihydro-1-hydroxy-1H-inden-1-yl]methyladenosine] | 120 | 11 | 22 | 66 |  |  |  |  | −14 | 89 | 88 |  |  |  | 
3 | OC[C@H]1O[C@@H](n2cnc3c(NC4CCCc5ccccc54)ncnc32)C(O)[C@@H]1O (stereo in doubt) [Example 1, (R,S)-N^6-[1-Tetralinyl]-adenosine] | 59 | 0 | 22 | 22 | 0 |  | 99 |  | 93 | 98 | 97 | 86 |  | 99 | 
4 | OC[C@H]1O[C@H](n2cnc3c(NC4CCCc5ccccc54)ncnc32)[C@H](O)[C@@H]1O (stereo partly drawn) [Example 3, (S)-N^6-[1-Tetralinyl]-adenosine] | 403 | 0 | 0 | 11 | 22 | 0 |  | 11 | 69 | 95 | 96 | 30 | 34 |  | 40
5 | OC[C@H]1O[C@@H](n2cnc3c(NCC4=CCCCc5ccccc54)ncnc32)[C@H](O)[C@@H]1O [Example 26, N^6-(1-benzocycloheptenyl)methyladenosine] | 713 | 0 | 22 | 22 |  |  |  |  | 50 | 31 | 64 |  |  |  | 

Now those with a lower IC50 (adenosine A1 receptor), led by results:

Row | IC50 (adenosine A1 receptor) [nM] | Screen test failure (Swiss-Webster male mice [2]; 3 mg/kg intraperitoneally) [%] | Screen test failure (Swiss-Webster male mice [2]; 10 mg/kg intraperitoneally) [%] | Screen test failure (Swiss-Webster male mice [2]; 30 mg/kg intraperitoneally) [%] | Screen test failure (Swiss-Webster male mice [2]; 1 mg/kg intraperitoneally) [%] | Screen test failure (Swiss-Webster male mice [2]; 0.3 mg/kg intraperitoneally) [%] | Screen test failure (Swiss-Webster male mice [2]; 100 mg/kg intraperitoneally) [%] | Screen test failure (Swiss-Webster male mice [2]; 0.1 mg/kg intraperitoneally) [%] | Structure (SMILES) | Inhibition of mouse locomotor activity (Swiss-Webster male mice [1]; 3 mg/kg intraperitoneally) [%] | Inhibition of mouse locomotor activity (Swiss-Webster male mice [1]; 10 mg/kg intraperitoneally) [%] | Inhibition of mouse locomotor activity (Swiss-Webster male mice [1]; 30 mg/kg intraperitoneally) [%] | Inhibition of mouse locomotor activity (Swiss-Webster male mice [1]; 1 mg/kg intraperitoneally) [%] | Inhibition of mouse locomotor activity (Swiss-Webster male mice [1]; 0.3 mg/kg intraperitoneally) [%] | Inhibition of mouse locomotor activity (Swiss-Webster male mice [1]; 100 mg/kg intraperitoneally) [%] | Inhibition of mouse locomotor activity (Swiss-Webster male mice [1]; 0.1 mg/kg intraperitoneally) [%]
6 | 40 | 11 | 11 |  | 0 |  |  |  | COc1ccc2c(c1)C(Nc1ncnc3c1ncn3[C@@H]1O[C@H](CO)[C@@H](O)[C@H]1O)CCC2 (single isomer, unassigned) [Example 5, N6-[1-(7-Methoxy)-tetralinyl]-adenosine] | 82 | 91 |  | 39 |  |  | 
7 | 19 | 22 | 44 | 66 | 22 | 11 |  |  | COc1cccc2c1CCC[C@@H]2Nc1ncnc2c1ncn2[C@@H]1O[C@H](CO)[C@@H](O)[C@H]1O [Example 10, (S)-N^6-[5-methoxy-1-aminotetralin]-adenosine] | 88 | 95 | 97 | 65 | −19 |  | 
8 | 20 | 11 | 0 | 0 | 11 |  |  |  | Cc1cc(C)c2c(c1)C(Nc1ncnc3c1ncn3[C@@H]1O[C@H](CO)[C@@H](O)[C@H]1O)CCC2 (stereo partly drawn) [Example 18, N^6-[1-(5,7-dimethyl)-tetralinya]-adenosine] | 73 | 91 | 96 | 44 |  |  | 
9 | 57 | 22 | 11 | 55 | 0 | 11 |  | 0 | OC[C@H]1O[C@@H](n2cnc3c(NCC4=CCc5ccccc54)ncnc32)[C@H](O)[C@@H]1O [Example 22, N^6-[1H-inden-3-yl]methyladenosine] | 76 | 96 | 97 | 76 | 38 |  | 30
10 | 21 | 11 | 22 | 65 | 11 | 11 |  |  | COc1ccc2c(c1)C(Nc1ncnc3c1ncn3[C@@H]1O[C@H](CO)[C@@H](O)[C@H]1O)CCC2 (single isomer, unassigned) [Example 8] | 88 | 93 | 94 | 83 | 25 |  | 

— EP0179667B1, “N6-substituted adenosines” (priority 1984, dated 1986)
